Data: patent publication US10100198B2, “Application of reduced dyes in imaging” (LI-COR, Inc., priority 2011, dated 2018)
“And” between values parts separate entries of the source, which are not always exact repeats. Equal values may be shown once. Each block holds one molecule with its values, some of them ahead of it.

Legend:
[1] = UV/vis absorption and emission; type: physicochemical; settings: for Extinction Coefficient: in M-1·cm-1 (unit assumed)
Experimental: Compound 1 (80 mg), 3-(4-carboxybutyl)phenylboronic acid (40 mg), and cesium carbonate (20 mg) are stirred into 1:1 water:ethanol (10 ml) under nitrogen at room temperature. Tetrakis(triphenylphosphine)palladium(0) (10 mg) is added to the reaction mixture. The mixture was refluxed for 4 hours, and the solvent and volatile compounds are evaporated under vacuum. The crude product is purified by flash chromatography on reverse-phase C18-functionalized silica by eluting with a 1:4 acetonitrile:water mixture. The purified product 3 has UV/vis absorption max of λMeOH=680 nm, ε=229,000; λPBS=676 nm, ε=239,000.
Compound 7 (80 mg), 3-(2-carboxyethyl)phenylboronic acid (40 mg), and cesium carbonate (20 mg) were stirred into water (20 mL) under nitrogen at room temperature. Tetrakis(triphenylphosphine)palladium (0) (10 mg) were added to the reaction mixture. The mixture was refluxed for 4 h, and the solvent and volatile compounds then were evaporated under vacuum. The crude product was purified by flash chromatography on reverse-phase silica with an acetonitrile/water mixture as the eluent. The purified compound had λMeOH=680 nm, λPBS=672 nm, ε=160,000.

HRP = target: T1, HRP (Armoracia rusticana, UniProt P00433); experiment: 800 HRP substrate test of DIR780F2-P, with and without enzyme, varied pH and Triton X-100; type: biochemical, horseradish; settings: two hours at ambient temperature
T1 sequence (P00433 31-338): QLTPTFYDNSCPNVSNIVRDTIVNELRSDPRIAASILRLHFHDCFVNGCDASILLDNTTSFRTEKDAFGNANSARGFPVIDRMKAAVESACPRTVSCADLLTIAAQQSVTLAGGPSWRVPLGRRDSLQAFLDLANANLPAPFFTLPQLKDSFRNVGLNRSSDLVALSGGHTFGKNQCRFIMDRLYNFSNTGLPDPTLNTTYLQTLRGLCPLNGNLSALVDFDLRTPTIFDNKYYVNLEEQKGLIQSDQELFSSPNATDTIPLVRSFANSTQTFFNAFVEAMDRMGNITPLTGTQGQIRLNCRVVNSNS
Text: Their efficacies as 800 HRP substrates have been tested in the ELISA format.

[2] = test system: ROS generation in RAW264.7 macrophages; experiment: Imaging LPS-induced ROS generation in RAW264.7 macrophages by fluorescence microscope; type: cell-based, mouse; settings: RAW264.7 cells, 5 μM hydrocyanines, 30 min
[3] = Cell permeability of reduced dyes; type: in vitro ADME
[4] = Water solubility of reduced dyes; type: physicochemical
β actin in A431 lysate = experiment: Western blot detection with chemifluorescent substrates, A431 lysate probed with mouse anti-β actin and HRP goat anti-mouse antibodies; set-up: species or system Human
Text: Use of H-IR780F2 and H-IRDye® 800CW for blot imaging was compared to a commercially-available 680 HRP ELISA substrate (see FIG. 15). 4-12% Bis-Tris gels were loaded with 2-fold, 7-point serial dilutions of A431 lysate (high conc.=[…]), electrophoresed, transferred to Odyssey Nitrocellulose, blocked with SeaBlock Blocking Buffer (with ProClin preservative). The blots were probed with mouse anti-β actin antibodies, followed by HRP goat anti-mouse antibodies (FIG. 15, A-D) or dye-conjugated goat anti-mouse antibodies (FIG. 15, E-F). Blots probed with HRP goat anti-mouse antibodies were incubated for 5 min with chemifluorescent substrates in buffer containing hydrogen peroxide. H-IRDye® 800CW and H-IR780F2 were tested at 10 μM with 50-200 μM H2O2. HRP 680 ELISA substrate was used according to published protocols (i.e., LI-COR product no. 926-34300).
The basic workflow remains unchanged and therefore, the chemifluorescent substrate based analysis is amenable to other methods of protein analysis, such as ELISAs and protein arrays.

[5] = target: T2, goat anti-mouse HRP-labeled antibody (GAM-HRP) (Armoracia rusticana, UniProt P00433); experiment: H-IR 780 / D-IR 780 as HRP substrate with HRP-labeled antibody in 96-well plate; type: biochemical, horseradish; settings: 10 μM substrate, HRP 800 Assay Buffer pH 3.0, 10 minutes ambient temperature, Odyssey 800 nm channel
T2 sequence (P00433 31-338 limits assumed): T1 sequence (P00433 31-338)
Text: Reduced hydrocyanine dyes (H- or D-versions) are nonfluorescent, but turn fluorescent upon oxidation. This activation property was exploited to utilize the reduced hydrocyanine dyes as horseradish peroxidase (HRP) substrates. In certain embodiments of an enzymatic assay, the hydrocyanines can be oxidized by HRP using hydrogen peroxide as the oxidizing agent, yielding a fluorescent signal. In some preferred embodiments, this fluorescent signal's wavelength can range from 530-900 nm depending on the structure of the dye.
HRP 800 Assay Buffer: The HRP 800 Assay Buffer contains 60 μM Hydrogen Peroxide, 0.2 μg/mL Acetanilide, 0.02% Triton X−100, in 100 mM Citrate Buffer, pH 3.0.
H-IR 780 Substrate solution: 10 μM H-IR 780 in the HRP 800 Assay Buffer.
D-IR 780 Substrate solution: 10 μM D-IR 780 in the HRP 800 Assay Buffer.
The utility of the H-IR 780 and D-IR 780 as a HRP substrate was tested by reaction of the dye with an enzyme-labeled antibody. The substrate, when oxidized by HRP and hydrogen peroxide, yields a fluorescent signal at approximately 800 nm in the NIR. […] Wells B12, C12 and D12 received 10 μL of PBS buffer (pH 7.2) and were used as a control to measure the background fluorescence. […]

Structure (SMILES): [2H]C1(C=CC2=C(c3cccc(F)c3F)C(=CC=C3N(CCC)c4ccccc4C3(C)C)CCC2)N(CCC)c2ccccc2C1(C)C (stereo not drawn) [DIR780F2-P]
+Enzyme signal (HRP; pH 5, Triton X-100 0.01%): 111403 and 107251 and 95434 and 93017
Mean Background (HRP; pH 5, Triton X-100 0.01%): 17016
Mean Signal (HRP; pH 5, Triton X-100 0.01%): 101776
Signal-Background (HRP; pH 5, Triton X-100 0.01%): 84761
−Enzyme signal (HRP; pH 5, Triton X-100 0.01%): 14729 and 17889 and 16731 and 18713
+Enzyme signal (HRP; pH 5, Triton X-100 0.05%): 110308 and 116984 and 91720 and 95384
Mean Background (HRP; pH 5, Triton X-100 0.05%): 16011
Mean Signal (HRP; pH 5, Triton X-100 0.05%): 103599
Signal-Background (HRP; pH 5, Triton X-100 0.05%): 87588
−Enzyme signal (HRP; pH 5, Triton X-100 0.05%): 15096 and 16995 and 15697 and 16257
+Enzyme signal (HRP; pH 5, Triton X-100 0.1%): 86168 and 78778 and 79940 and 81063
Mean Background (HRP; pH 5, Triton X-100 0.1%): 14716
Mean Signal (HRP; pH 5, Triton X-100 0.1%): 81487
Signal-Background (HRP; pH 5, Triton X-100 0.1%): 66771
−Enzyme signal (HRP; pH 5, Triton X-100 0.1%): 14612 and 15268 and 14653 and 14330
+Enzyme signal (HRP; pH 6, Triton X-100 0.01%): 65943 and 71002 and 70952 and 72922
Mean Background (HRP; pH 6, Triton X-100 0.01%): 13218
Mean Signal (HRP; pH 6, Triton X-100 0.01%): 70205
Signal-Background (HRP; pH 6, Triton X-100 0.01%): 56987
−Enzyme signal (HRP; pH 6, Triton X-100 0.01%): 12646 and 15381 and 12242 and 12600
+Enzyme signal (HRP; pH 6, Triton X-100 0.05%): 72420 and 71667 and 65401 and 73540
Mean Background (HRP; pH 6, Triton X-100 0.05%): 15498
Mean Signal (HRP; pH 6, Triton X-100 0.05%): 70757
Signal-Background (HRP; pH 6, Triton X-100 0.05%): 55259
−Enzyme signal (HRP; pH 6, Triton X-100 0.05%): 16006 and 17026 and 14644 and 14316
+Enzyme signal (HRP; pH 6, Triton X-100 0.1%): 73669 and 63411 and 72029 and 67718
Mean Background (HRP; pH 6, Triton X-100 0.1%): 17956
Mean Signal (HRP; pH 6, Triton X-100 0.1%): 69207
Signal-Background (HRP; pH 6, Triton X-100 0.1%): 51251
−Enzyme signal (HRP; pH 6, Triton X-100 0.1%): 21194 and 15983 and 19749 and 14897

Structure (SMILES): CCCN1/C(=C/C=C/C2N(CCC)c3ccccc3C2(C)C)C(C)(C)c2ccccc21 (stereo not drawn) [H-Cy3]
fluorescent intensity in LPS treated cells compared to untreated cells [2]: increased fluorescent intensity in the LPS treated cells compared to the untreated cells

Structure (SMILES): CC1(C)\C(=C/C=C(Br)/C=C/C2N(CCCCCCO)c3ccccc3C2(C)C)N(CCCCCCO)c2ccccc21 (stereo not drawn) [H-IR650DIOL, 6-((E)-2-((2Z,4E)-3-bromo-5-(1-(6-hydroxyhexyl)-3,3-dimethylindolin-2-yl)penta-2,4-dien-1-ylidene)-3,3-dimethylindolin-1-yl)hexan-1-ol]
cell permeability [3]: cell permeable
water solubility [4]: improved water solubility

Structure (SMILES): CCCN1/C(=C/C=C2\CCCC(/C=C/C3N(CCC)c4ccccc4C3(C)C)=C2c2cccc(F)c2F)C(C)(C)c2ccccc21 (stereo not drawn) [H-IR780F2]
Western blot signal, background and linearity (β actin in A431 lysate; 10 μM substrate, 50-200 μM H2O2, 5 min incubation): good signal with high linearity for lower signals and moderate linearity for higher signals
Lower Limit of Detection (LLD) (β actin in A431 lysate; Western blots): 1.5 ng
sensitivity compared to chemiluminescent detection (luminol-based reagent system) (β actin in A431 lysate; Western blots): 32 fold
sensitivity compared to fluorescent dye-conjugated secondary antibody detection (β actin in A431 lysate; Western blots): 16 fold
fluorescent intensity in LPS treated cells compared to untreated cells [2]: increased fluorescent intensity in the LPS treated cells compared to the untreated cells

Structure (SMILES): CCCN1/C(=C/C=C2\CCCC(/C=C/C3N(CCC)c4ccccc4C3(C)C)=C2Cl)C(C)(C)c2ccccc21 (stereo not drawn) [H-IR 780]
fluorescence signal at approximately 800 nm versus GAM-HRP concentration [5]: intensity of the fluorescence signal increased with increasing concentration of GAM-HRP

The next lines start with the values.

Max. Abs. ([1]; MeOH): 680 nm
Extinction Coefficient ([1]; MeOH): 229,000
Max. Abs. ([1]; PBS): 676 nm
Extinction Coefficient ([1]; PBS): 239,000
Structure (SMILES): CC1(C)C(/C=C/C(=C/C=C2/N(CCCS(=O)(=O)[O-])c3ccc4c(S(=O)(=O)[O-])cc(S(=O)(=O)[O-])cc4c3C2(C)C)c2cccc(CCCCC(=O)O)c2)=[N+](CCCS(=O)(=O)[O-])c2ccc3c(S(=O)(=O)[O-])cc(S(=O)(=O)[O-])cc3c21.[Na+].[Na+].[Na+].[Na+].[Na+] [Compound 3, Sodium 2-((1E,3Z,5E)-3-(3-(4-Carboxybutyl)phenyl)-5-(1,1-dimethyl-6,8-disulfonato-3-(3-sulfonatopropyl)-1H-benzo[e]indol-2(3H)-ylidene)penta-1,3-dienyl)-1,1-dimethyl-3-(3-sulfonatopropyl)-1H-benzo[e]indolium-6,8-disulfonate]

Max. Abs. ([1]; MeOH): 680 nm
Max. Emis. ([1]; MeOH): 694 nm
Extinction Coefficient ([1]; MeOH): 170,000
Max. Abs. ([1]; PBS): 672 nm
Max. Emis. ([1]; PBS): 694 nm
Extinction Coefficient ([1]; PBS): 160,000
Structure (SMILES): CC1(C)C(/C=C/C(=C/C=C2/N(CCCS(=O)(=O)[O-])c3ccc(S(=O)(=O)[O-])cc3C2(C)C)c2cccc(CCC(=O)O)c2)=Nc2c1cc(Cl)c[n+]2CCCS(=O)(=O)[O-].[Na+].[Na+] [Compound 8, Sodium (E)-2-((2Z,4E)-3-(3-(2-Carboxyethyl)phenyl)-5-(5-chloro-3,3-dimethyl-7-(3-sulfonatopropyl)-3H-pyrrolo[2,3-b]pyridin-7-ium-2-yl)penta-2,4-dienylidene)-3,3-dimethyl-1-(3-sulfonatopropyl)indoline-5-sulfonate]

cell permeability [3]: cell permeable
water solubility [4]: improved water solubility
Structure (SMILES): CC1(C)\C(=C/C=C(Br)/C=C/C2N(CCCCCCO)c3ccc4ccccc4c3C2(C)C)N(CCCCCCO)c2ccc3ccccc3c21 (stereo not drawn) [H-IR680DIOL]
